Measurements as given in patent US7744867B2, “PTPase inhibitors and method of using same” (The Cleveland Clinic Foundation, priority 2001, dated 2010).

How the values were obtained:
[1] = system: 5637 cells (Blader carcinoma); assay: Growth inhibition of human tumor cell lines; type: cell-based; conditions: SS 12.5 μg/ml, IFNα 1,000 u/ml, alone or combined
[2] = system: WM35 cells (Melanoma); assay: Growth inhibition of human tumor cell lines; type: cell-based; conditions: SS 12.5 μg/ml, IFNα 1,000 u/ml, alone or combined
[3] = system: prostate cancer; conditions: cited from earlier work
[4] = system: DU145 human prostate carcinoma xenografts; assay: Xenografts of human prostate carcinoma in nude mice, tumor volume; type: in vivo; conditions: day 25, IFNα 500,000 U s.c. daily, sodium stibogluconate 12 mg Sb s.c. daily, alone or combined
Excerpt: FIG. 11 illustrates that sodium stibogluconate appears to synergize with IFNα against WM9 human melanoma tumors in nude mice. IFNα or both on the growth of xenografts of human melanoma cell line WM9 and human prostate carcinoma cell line DU-145 in athymic nude mice. Nude mice of 4 weeks old were inoculated subcutaneously (s.c.) with WM9 human melanoma cells (3×10^6 cells/site) (A) or DU-145 human prostate cancer cells (2×10^6 cells/site) (B) on day 0. Starting on day 2, the mice were subjected to no treatment (Control) or treatment with IFNα (500,000 U, s.c., daily), sodium stibogluconate (12 mg, s.c., daily) or both (Combo). Tumor volume in the nude mice (4 mice/group, 2 tumors/mouse) was measured on the days as indicated. Tumor volume was calculated by the equation: (length×width^2)/2 to compare tumor growth rates. All mice survived by the end of the experiment. […]
For each of the cell lines, each of 16 mice received subcutaneous injection at the chest area of 3×10^6 cells/site (WM9) or 2×10^6 cells/site (DU145), two sites/mouse, on day 0. […] Tumor size was measured with a caliper to determine the two perpendicular diameters of each tumor. Tumor volume was calculated using the method of the NCI (length×width^2 in millimeters/2=volume in cubic millimeters).

[5] = system: Stat1 tyrosine phosphorylation; assay: IFNα-induced Stat1 tyrosine phosphorylation in cancer cell lines; type: cell-based, human
Procedure: Induction of Stat1 tyrosine phosphorylation by IFNα and/or sodium stibogluconate. For induction of Stat1 tyrosine phosphorylation by IFNα in the absence or presence of sodium stibogluconate, cells grown in 10% FCS RPMI 1640 medium at 37° C. were stimulated with IFNα (50 u/ml) for various time points and treated with or without sodium stibogluconate for 5 minutes prior to termination by lysing the cells in cold lysis buffer (1% NP-40; 50 mM Tris, pH 7.4; 100 mM NaCl; 1 mM EDTA, 10% glycerol, 10 mM sodium molybdic acid and 4 mM AEBSF).
Cell lysate preparation, SDS-PAGE, and Western blotting. Cell lysates were prepared by lysing cells in cold lysis buffer for 30 min and cleared by centrifuging at 14,000 rpm at 4° C. for 15 min. For SDS-PAGE, cell lysates were mixed with equal volume of 2×SDS-PAGE sample buffer, heated at 90° C. for 5 min and separated in 10% SDS-PAGE gels. Cellular proteins in SDS-PAGE gels were transferred to nitrocellulose membrane (Schleicher & Schuell), blocked in 5% milk, probed with antibodies and detected by using an enhanced chemiluminescence kit (ECL, Amersham).

[6] = system: Jak2 and Stat5 tyrosine phosphorylation; assay: IL-3-induced Jak2/Stat5 tyrosine phosphorylation in Baf3 cells; type: cell-based, murine
Procedure: For induction of cellular protein phosphorylation by sodium stibogluconate or pervanadate, Baf3 cells were incubated in 0.1% FCS RPMI 1640 medium at 37° C. for 16 hours. The cells were then washed twice in RPMI 1640 medium and incubated with sodium stibogluconate or pervanandate (0.1 mM) for various times prior to termination by lysing cells in cold lysis buffer (50 mM Tris, pH 7.4; 150 mM NaCl; 0.2 mM Na3VO4; 20 mm NaF; 1% NP40; 2 mM PMSF; 20 μg/ml of aprotinin and 1 mM of sodium molybdic acid). To determine the effect of sodium stibogluconate or potassium antimonyl tartrate on IL-3-induced Jak/Stat phosphorylation, Baf3 cells were deprived of the growth factor for 16 hours in 0.1% FCS RPMI 1640 medium and then incubated with or without sodium stibogluconate or potassium antimonyl tartrate for 10 minutes. IL-3 was next added to the cell suspension and incubated for various times. The cells were then harvested and lysed in cold lysis buffer at 4° C. for 45 minutes. Total cell lysates (TCL) were separated in SDS-PAGE gels, blotted onto nitrocellulose membrane (Schleicher & Schuell), probed with specific antibodies and detected using an enhanced chemiluminescence kit (ECL, Amersham).
A functional role of SHP-1 in dephosphorylating the Jak family kinases during cytokine signaling has been documented. To determine whether sodium stibogluconate inhibits SHP-1 in vivo, the effect of the drug on IL-3-induced Jak2 tyrosine phosphorylation in Baf3 cells was examined. Baf3 cells deprived of IL-3 were incubated with or without the drug for 10 minutes and then stimulated with IL-3 for various times. IL-3 induced tyrosine phosphorylation of Jak2 and Stat5 in Baf3 cells in the presence or absence of the drug. However, the phosphotyrosine levels of Jak2 and Stat5 in the presence of the drug were about twice of those in cells without drug treatment as determined by densitometry analysis.

Compound	% of growth inhibition by day 6 (±s.d.) [1]	% of growth inhibition by day 6 (±s.d.) [2]	patients in whom the cytokine is effective [3] [%]	average tumor volume, of the control [4]	IFNα-induced Stat1 tyrosine phosphorylation relative to control ([5]; DR cells, 10 μg/ml, 30 min post-stimulation)	Stat1 tyrosine phosphorylation by the drug itself ([5]; DR cells, absence of IFNα)	IFNα-induced Stat1 tyrosine phosphorylation ([5]; DU145 cells, 5 hours post-stimulation)	IFNα-induced Stat1 tyrosine phosphorylation ([5]; WM9 cells, 5 hours post-stimulation)	IFNα-induced Stat1 tyrosine phosphorylation ([5]; WM35 cells)	IFNα-induced Stat1 tyrosine phosphorylation ([5]; WiT49-N1 cells)	phosphotyrosine levels of Jak2 and Stat5 relative to cells without drug treatment ([6]; IL-3 stimulated, drug 10 minutes before, densitometry)	Jak2/Stat5 tyrosine phosphorylation by the drug alone ([6]; without IL-3, 37° C. for 16 hours)
IFNα	28 (17) %	19 (3) %	5	approximately 70%	–	–	–	–	–	–	–	–
O.O.O.O.O.O.O.O.O.O=C([O-])[C@@H]1[O][Sb]2([O-])([O][Sb]34([OH])[O][C@H]([C@H](O)CO)[C@H]([O]3)[C@H](C(=O)[O-])[O]4)[O][C@H]([C@H](O)CO)[C@@H]1[O]2.[Na+].[Na+].[Na+] [sodium stibogluconate]	–	–	–	–	approximately two	failed to induced	Enhanced	Enhanced	failed to enhance	failed to enhance	about twice	failed to induce
